# Laboratory results reported in patent US9556217B2, “Amphiphilic compounds” (WISCONSIN ALUMNI RESEARCH FOUNDATION, priority 2012, dated 2017).
# Molecular target: T1, β2AR WT (Homo sapiens, UniProt P07550)
# T1 construct: made in house; host or cells: Sf9 insect cells (baculovirus); lysed cells and membranes extracted directly with amphiphile
# Test: Extraction of β2AR WT from insect cell membranes
# Details: 1 or 2 wt %; western blotting
# Description: The favorable MelB extraction performance of GDN led to the examination of this amphiphile for extraction of other IMPs. […] DDM and GDN were used to extract a CMP-Sia fusion protein bearing green fluorescent protein (GFP) at the C-terminus, after expression in Saccharomyces cerevisiae; the amount of solubilized protein was estimated by total fluorescence. GDN (2 wt %), DDM (1 wt %) and OG (1 wt %) gave ˜70%, ˜80% and ˜50% extraction yields, respectively.
# The procedure was performed according to the protocol reported by Chae and coworkers (Nat. Methods 2010, 7, 1003-1008).
# A gene encoding amino-terminally FLAG epitope tagged β2AR was expressed in Sf9 cells by baculovirus, with no ligand present during culture. Cells were infected at a density of 4×10^6 cells/mL and then cultured for 48 hours prior to harvesting by centrifugation. Cells were resuspended and lysed by osmotic shock with a low ionic strength buffer (20 mM Tris pH 7.5, 1 mM EDTA). The lysed cells were aliquoted 35 mg per aliquot, then frozen. For extraction tests, 300 μL of solubilization buffer (20 mM HEPES pH 7.5, 100 mM NaCl) containing each amphiphile was added to each aliquot, which was then homogenized by pipet followed by grinding with a glass dounce tissue homogenizer. After two-hour incubation at 4° C., samples were centrifuged at maximum speed in a tabletop microcentrifuge to pellet insoluble material. […]
# T1 sequence (P07550 whole entry): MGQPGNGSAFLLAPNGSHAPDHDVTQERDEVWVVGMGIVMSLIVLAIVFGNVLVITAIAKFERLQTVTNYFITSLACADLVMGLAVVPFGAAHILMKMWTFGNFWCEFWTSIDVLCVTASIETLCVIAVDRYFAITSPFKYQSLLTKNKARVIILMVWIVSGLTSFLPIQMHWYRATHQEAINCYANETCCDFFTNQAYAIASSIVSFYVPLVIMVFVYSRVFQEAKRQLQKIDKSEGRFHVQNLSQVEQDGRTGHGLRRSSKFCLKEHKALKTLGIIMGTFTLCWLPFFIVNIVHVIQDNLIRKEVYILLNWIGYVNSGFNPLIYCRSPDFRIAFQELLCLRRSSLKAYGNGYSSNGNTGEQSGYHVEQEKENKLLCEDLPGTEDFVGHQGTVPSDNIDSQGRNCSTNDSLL
smiles,measurement,value
"C[C@@H]1CC[C@@]2(OC1)O[C@H]1C[C@H]3[C@@H]4CC=C5C[C@@H](OCCC(CO[C@@H]6OC(CO)[C@@H](O[C@H]7OC(CO)[C@@H](O)C(O)C7O)C(O)C6O)CO[C@@H]6OC(CO)[C@@H](O[C@H]7OC(CO)[C@@H](O)C(O)C7O)C(O)C6O)CC[C@]5(C)[C@H]4CC[C@]3(C)[C@@H]1[C@@H]2C (stereo partly shown) [GDN, glyco-diosgenin]",β2AR WT extraction compared with 1 wt % DDM,more effective than was 1 wt % DDM
